The results in this text go back to PubChem BioAssay (NCI).

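1) Cells in 96-well plates. 2) Compound, 48 h, 5 concentrations. 3) Linear interpolation between surrounding doses. 4) Unreached endpoint = highest concentration. Definition used: TGI = concentration required for complete inhibition of growth.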

Some test systems named below: DMS 114 small cell lung; LXFL 529 NSCLC; M19-MEL melanoma; RXF-631 renal; SNB-78 CNS; DMS 273 small cell lung; BT-549 breast; T-47D breast; MDA-N.
What all share (assay): inhibition of tumour cell growth, NCI panel, 48 h

On to `COc1ccc(C2=NNC(=O)OC2c2ccccc2)cc1` (centres undefined), for which the TGI with DMS 114 small cell lung, in the test with LXFL 529 NSCLC, with M19-MEL melanoma, in the test with RXF-631 renal and with SNB-78 CNS was over 100 µM in each case.

Take `CN1C2(c3ccccc3)c3c(-c4ccccc4)sc(-c4ccccc4)c3C1(c1ccccc1)C1C(=O)N(c3ccccc3)C(=O)C12` (centres undefined): the TGI in the test with DMS 114 small cell lung, in the test with DMS 273 small cell lung, in the test on LXFL 529 NSCLC, in the test on M19-MEL melanoma, in the test on RXF-631 renal and in the test with SNB-78 CNS was over 100 µM each time.

As for `Cn1c2c(c3ccccc31)C1CCCCC1C1C(=O)NC(=O)C21` (centres undefined), the TGI in the test with DMS 114 small cell lung, in the test on LXFL 529 NSCLC, in the test on M19-MEL melanoma, in the test on RXF-631 renal and in the test on SNB-78 CNS was over 100 µM in each case.

Take `COc1ccc2oc3c4c2c1CCC4CCC3=O` (centres undefined): the TGI in the test on DMS 114 small cell lung, in the test with DMS 273 small cell lung, in the test with LXFL 529 NSCLC, in the test with M19-MEL melanoma, in the test with RXF-631 renal and in the test with SNB-78 CNS was over 100 µM each time.

For the molecule `CCn1c2c(n(CC)c1=S)-c1c(n(CC)c(=S)n1CC)SSSS2`, the TGI with BT-549 breast worked out at 29.1 µM; in the test on DMS 114 small cell lung it was 38.1 µM; with DMS 273 small cell lung, 33.1 µM; in the test with LXFL 529 NSCLC it was 5.97 µM; in the test with M19-MEL melanoma it was 22.1 µM; in the test with RXF-631 renal, 24.4 µM. The TGI in the test with SNB-78 CNS was found to be 28.1 µM; in the test with T-47D breast it was 5.16 µM.

Take `N/N=C1\C(=O)N(C2CCCCC2)C(=O)C1C(=O)NC1CCCCC1` (centres undefined): the TGI in the test with DMS 114 small cell lung, with LXFL 529 NSCLC, with M19-MEL melanoma, in the test on RXF-631 renal and in the test on SNB-78 CNS was over 100 µM throughout.

Turning to `COc1ccc(/C(Cl)=C(\C=O)c2ccc([N+](=O)[O-])cc2)cc1OC`, the TGI in the test with DMS 114 small cell lung came to 22.3 µM; with DMS 273 small cell lung it was 32 µM; in the test on LXFL 529 NSCLC, 13.7 µM; with M19-MEL melanoma it was 24.3 µM; in the test on MDA-N, 14.5 µM; with RXF-631 renal, 26.9 µM. In addition, the values for the TGI in the test on SNB-78 CNS and in the test on T-47D breast were 56.5 µM and over 100 µM, respectively.

Regarding `O=S(O)CCCCCSSCCCCSSCCCCCS(=O)O`, the TGI in the test with DMS 114 small cell lung, in the test with DMS 273 small cell lung, with LXFL 529 NSCLC, in the test on M19-MEL melanoma, with RXF-631 renal and with SNB-78 CNS was over 100 µM each time.

In the case of `O=C(CO)CC(=O)C(=O)Nc1nc([N+](=O)[O-])cs1`, the TGI in the test with DMS 114 small cell lung, in the test with DMS 273 small cell lung, with LXFL 529 NSCLC, in the test on M19-MEL melanoma, with RXF-631 renal and with SNB-78 CNS was over 100 µM throughout.

As for `CCNCC(=O)O[C@]1(CC)C(=O)OCc2c1cc1n(c2=O)Cc2cc3ccccc3nc2-1`, the TGI in the test on BT-549 breast was 26.7 µM; in the test with DMS 114 small cell lung it was 2.53 µM; with DMS 273 small cell lung, 0.328 µM; with LXFL 529 NSCLC, 42.6 µM; with M19-MEL melanoma it was 5.44 µM; in the test on MDA-N it was 6.95 µM. In addition, the TGI in the test on SNB-78 CNS was over 100 µM.

For the molecule `CCOC(=O)N1CCc2cc(OC)c(OC)c3c2C1CC3=O` (centres undefined), the TGI in the test with DMS 114 small cell lung, with DMS 273 small cell lung, with LXFL 529 NSCLC, with M19-MEL melanoma and in the test with SNB-78 CNS was over 100 µM throughout.

`Cc1ccc(NC(=O)c2cccc([N+](=O)[O-])c2O)c([N+](=O)[O-])c1`: the TGI in the test on DMS 114 small cell lung was 25.7 µM; in the test on DMS 273 small cell lung, 26.2 µM; in the test on LXFL 529 NSCLC, 27.9 µM; in the test with M19-MEL melanoma, 27.6 µM; in the test with RXF-631 renal, 26.9 µM; in the test on SNB-78 CNS it was over 100 µM.

With `CSC(C1c2ccccc2N(C)C2=NC(=O)N(C)C(=O)C21Cl)S(=O)(=O)c1ccc(C)cc1` (centres undefined), the TGI with DMS 114 small cell lung was over 100 µM; with DMS 273 small cell lung, 75 µM; with LXFL 529 NSCLC, 57.7 µM; in the test with M19-MEL melanoma, over 100 µM; in the test on RXF-631 renal, over 100 µM; with SNB-78 CNS, over 100 µM.

For the molecule `CC1=CC(=O)CCC2(C)C1CC[C@@H]2OC=O` (some centres undefined), the TGI in the test with DMS 114 small cell lung, with DMS 273 small cell lung, in the test with LXFL 529 NSCLC, with M19-MEL melanoma, with RXF-631 renal and with SNB-78 CNS was over 100 µM in each case.

As for `CC(=O)C1CC=C(C)CC1` (centres undefined), the TGI with DMS 114 small cell lung, in the test with DMS 273 small cell lung, in the test on LXFL 529 NSCLC, with M19-MEL melanoma, in the test on RXF-631 renal and in the test on SNB-78 CNS was over 100 µM each time.

In the case of `C=C/C=C(\NC(=O)C(Cl)(Cl)Cl)[Si](C)(C)C`, the TGI in the test on DMS 114 small cell lung, with DMS 273 small cell lung, in the test on LXFL 529 NSCLC, in the test on M19-MEL melanoma and in the test with SNB-78 CNS was over 100 µM each time.

Turning to `NC(N)=NS(=O)(=O)c1ccc(NCc2c3ccccc3nc3ccccc23)cc1`, the TGI in the test on BT-549 breast is 34.3 µM; with DMS 114 small cell lung, 16 µM; with DMS 273 small cell lung it was over 61.6 µM; with LXFL 529 NSCLC, 44.3 µM; with M19-MEL melanoma, over 100 µM; with MDA-N, over 100 µM. Also, the TGI is over 70.1 µM with RXF-631 renal, over 66.9 µM in the test on SNB-78 CNS and 23.5 µM in the test on T-47D breast.

For the molecule `CC(=O)OC1CC(n2cc(F)c(=O)[nH]c2=O)OC1CO` (centres undefined), the TGI with BT-549 breast was over 100 µM; in the test on DMS 114 small cell lung, over 100 µM; in the test with DMS 273 small cell lung it was over 47 µM; in the test with LXFL 529 NSCLC, 16.4 µM; in the test with M19-MEL melanoma it was over 100 µM; with MDA-N, over 100 µM. Also, the TGI with SNB-78 CNS and in the test with T-47D breast was over 100 µM each time.

With `COC1(OC)CC2C=C(S(=O)(=O)c3ccccc3)C1N(Cc1ccccc1)C2=O` (centres undefined), the TGI was 48.3 µM in the test on DMS 114 small cell lung; 44.9 µM in the test on LXFL 529 NSCLC; over 100 µM in the test with M19-MEL melanoma; 88.2 µM in the test on RXF-631 renal; 75.9 µM in the test with SNB-78 CNS.

With `COc1ccc(/C(=N/NC(=O)NN)C(c2ccc(OC)cc2)C2(O)CNc3c(Cl)cc(Cl)cc32)cc1` (centres undefined), the TGI with DMS 114 small cell lung, in the test with LXFL 529 NSCLC, with M19-MEL melanoma, in the test on RXF-631 renal and in the test with SNB-78 CNS was over 100 µM each time.

On to `CCn1cc(/C=C/C(C)c2cn(CC)c(=O)[nH]c2=O)c(=O)[nH]c1=O` (centres undefined), for which the TGI in the test with DMS 114 small cell lung, in the test on DMS 273 small cell lung, with LXFL 529 NSCLC, in the test with M19-MEL melanoma and in the test with RXF-631 renal was over 100 µM throughout.

Regarding `CCCN(CCCC(NC(C)=O)C(=O)NCc1ccccc1)C(=O)NC` (centres undefined), the TGI in the test with DMS 114 small cell lung, in the test on DMS 273 small cell lung, in the test with LXFL 529 NSCLC, in the test with M19-MEL melanoma, in the test with RXF-631 renal and in the test on SNB-78 CNS was over 100 µM each time.

Regarding `N#CC(C(=O)/C(=N\Nc1nc(=S)[nH]n1N)C(C#N)c1ccc(Cl)cc1)c1ccc(Cl)cc1` (centres undefined), the TGI with DMS 114 small cell lung, in the test on DMS 273 small cell lung, in the test on LXFL 529 NSCLC, in the test with M19-MEL melanoma and with SNB-78 CNS was over 100 µM in each case.

`COc1ccc(C(O)/C(=N\NC(N)=S)c2nc3ccc([N+](=O)[O-])cc3[nH]c2=O)cc1OC` (centres undefined): the TGI in the test on DMS 114 small cell lung, with DMS 273 small cell lung, in the test with LXFL 529 NSCLC, in the test on M19-MEL melanoma and in the test on RXF-631 renal was over 100 µM each time.

Consider `Cc1cc2c(=O)n(-c3ccc(F)cc3)c(C)nc2c(C(=O)O)c1C`, for which the TGI with DMS 114 small cell lung, with DMS 273 small cell lung, in the test with LXFL 529 NSCLC, with M19-MEL melanoma and with SNB-78 CNS was over 100 µM throughout.

`CC(=O)O/N=C/c1ncccc1OC(C)=O`: the TGI in the test on DMS 114 small cell lung, in the test on DMS 273 small cell lung, in the test with LXFL 529 NSCLC, with M19-MEL melanoma and in the test with RXF-631 renal was over 100 µM each time.
